In US9359342B2, “Protein disulfide isomerase inhibiting anticancer agents” (THE CLEVELAND CLINIC FOUNDATION, priority 2013, dated 2016):

Columns and labels:
recombinant PDI = recombinant PDI (Homo sapiens, UniProt P07237); experiment: PDI activity assay (di-eosin-di-gluthathione, eGSSG); format: biochemical; conditions: for PDI Activity at 10 μM (%): compound at 10 μM; for IC50: recombinant PDI, di-eosin-di-gluthathione assay
Description: PDI activity assay: The di-eosin-di-gluthathione assay was performed essentially as described (Raturi, A. and Mutus, B Free Radical Biology & Medicine 43; 2007) with the minor modification that we used gluthathione instead of DTT as reducing agent. Briefly, recombinant PDI was incubated with CC642 or analogs in potassium-based assay buffer at 37° C. before reactions were started by addition of gluthathione and di-eosin-di-gluthathione. Release of eosin was measured every 60 seconds for 30 min using excitation/emission filters of 525 nm/545 nm, respectively.
(§1) Next, MM1.S cells were treated with B-CCF642 and purified lysates of treated and untreated cells for B-CCF642 binding proteins using streptavidin beads followed by SDS-PAGE and mass spectroscopy for protein sequencing of a band that contained biotin signal. Among 10 proteins that were only recovered from treated cells PDI was the most abundant but HSP70 family members were also recovered. To test whether HSP70 family members were inhibited by CCF642, chaperone assays were performed that tested rearrangement of partially denatured luciferase. […] However, PDI function, as assessed by the eGSSG assay which measures PDI's reducing capacity, was inhibited by CCF642 (table 1). […] To determine whether PDI activity is inhibited in vivo, the inventors performed IRE1-α immunoblots after CCF642 treatment of MM1.S cells. IRE1-α acts as a sensor for misfolded proteins in the ER and undergoes oligomerization after it binds to misfolded proteins which changes its conformation into an active state. Lavoie et al., Trends in biochemical sciences, 39(10):475-486 (2014). Within 15 min CCF642 caused IRE1-α oligomerization (FIG. 6) which was associated with increase in protein ubiquitination (FIGS. 2b and 4), a well-documented consequence of reduction in PDI activity. Lee et al., EMBO molecular medicine. 6(6):732-743 (2014).

MM1.S = MM1.S myeloma cell viability; format: cell-based; conditions: Homo sapiens; for viability at 6.75 µM: MM1.S, compound at 6.75 μM, read-out: MM1.S Viable cells at 6.75 μM (%); for IC50: MM1.S myeloma cells
From the text: Cell lines: Multiple myeloma cell lines MM1.S, MM1.R, NCI-H929 were obtained from ATCC. MM cell lines KMS-12-PE and KMS-12-BM were from the JCRB, JJN-3 from DSMZ, and 5TGM1-luc cells were from Dr. Yoneda at the University of Texas Health Science at San Antonio. HRMM.09 cells were generated in the inventor's lab from a patient who developed refractory myeloma after treatment with steroids, IMiD, proteasome inhibitors, DNA alkylators, and anthracyclines. MM1.S-luc and HRMM.09-luc were generated in the inventor's laboratory by transduction with Cignal™ firefly luciferase control lentivirus obtained from Qiagen™. Lymphoma cells were generated by Mitchell Smith. All MM and lymphoma cells were grown in RPMI 1640 (NaCl 103.45 mM, NaCO3 23.81 mM, Na2HPO4 5.63 mM, KCl 5.33 mM, Ca(NO3)2 4H2O 0.424 mM, MgSO4 0.407 mM, pH around 7.2), supplemented with 10% fetal bovine serum, penicillin G (50 units ml^−1), and streptomycin ([…]). HS-5 cells were grown in appropriate cell culture media. Normal bone marrow cells were obtained from discarded bags of bone marrow grafts from healthy donors and either kept in RPMI with 25% (v/v) HS-5 supernatant for up to 14 days for isolated cytotoxicity assays or frozen and thawed for the sandwich assay. All cells were cultured at 37° C., 5% CO2 in humidified air.

MM cell lines = experiment: Cytotoxicity in MM cell line panel (trypan blue exclusion, Vicell); format: cell-based; conditions: 72 h, all 8 MM cell lines tested
Description: (§2) FIGS. 2(A-B) provide a graph and immunoblot showing the effect of CCF642 on cancer and protein ubiquitination, with FIG. 2(A) showing the activity of CCF642 against a panel of MM and lymphoma cells. Seventy two hours after CCF642 administration, the IC50 by trypan blue exclusion (Vicell™) is <1 μM for all MM and all but one lymphoma line. Normal bone marrow (NL BM) tolerated CCF642; myeloid cells were less sensitive, especially GDM1, with E3 ligase domain mutation of c-CBL and FIG. 2(B) showing that an increase in protein ubiquitination is accompanied by loss of myeloma survival factors in MM cells Immunoblots of MM1.S cells show rise followed by decrease of protein ubiquitination with loss of MM survival factors.
(§3) Cell lines: Multiple myeloma cell lines MM1.S, MM1.R, NCI-H929 were obtained from ATCC. MM cell lines KMS-12-PE and KMS-12-BM were from the JCRB, JJN-3 from DSMZ, and 5TGM1-luc cells were from Dr. Yoneda at the University of Texas Health Science at San Antonio. HRMM.09 cells were generated in the inventor's lab from a patient who developed refractory myeloma after treatment with steroids, IMiD, proteasome inhibitors, DNA alkylators, and anthracyclines. MM1.S-luc and HRMM.09-luc were generated in the inventor's laboratory by transduction with Cignal™ firefly luciferase control lentivirus obtained from Qiagen™. Lymphoma cells were generated by Mitchell Smith. […]

lymphoma cell lines = experiment: Cytotoxicity in lymphoma cell line panel (trypan blue exclusion, Vicell); format: cell-based; conditions: 6 of 7 (all but one) lymphoma lines, 72 h
Description: as §2, §3

[1] = tested on: normal bone marrow (NL BM) cells; experiment: Cytotoxicity in normal bone marrow; format: cell-based; conditions: three independent normal bone marrow samples; doses up to 6.75 μM
Description: as §2, §3

Tolerability in mice = format: in vivo, C57BL/KaLwRij mice
IRE1-α = IRE1-α oligomerization immunoblot in MM1.S cells; format: cell-based
Description: as §1

protein ubiquitination = experiment: Protein ubiquitination time course immunoblot in MM1.S cells; format: cell-based
From the text: Protein ubiquitination and depletion of c-MYC, IRF4, and NF-κB. Initial tests were aimed at excluding proteasome inhibitors from further study and used WB for accumulation of ubiquitinated proteins after one day of therapy. […] Another proteasomally regulated protein, p27, disappeared as well.

Chain of recombinant PDI (P07237 18-508, species assumed): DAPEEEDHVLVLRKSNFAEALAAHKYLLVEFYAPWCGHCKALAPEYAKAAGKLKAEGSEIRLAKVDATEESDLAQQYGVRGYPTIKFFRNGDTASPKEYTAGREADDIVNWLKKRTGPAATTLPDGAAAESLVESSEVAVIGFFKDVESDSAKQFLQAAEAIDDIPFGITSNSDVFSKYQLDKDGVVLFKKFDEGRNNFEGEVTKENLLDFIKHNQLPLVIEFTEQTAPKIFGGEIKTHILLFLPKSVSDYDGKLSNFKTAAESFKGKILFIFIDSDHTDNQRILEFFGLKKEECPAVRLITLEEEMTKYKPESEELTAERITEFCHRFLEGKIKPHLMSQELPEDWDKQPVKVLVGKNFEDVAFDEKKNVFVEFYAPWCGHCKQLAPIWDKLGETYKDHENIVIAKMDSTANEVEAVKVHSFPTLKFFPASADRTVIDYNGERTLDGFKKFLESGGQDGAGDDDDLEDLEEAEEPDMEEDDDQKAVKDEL

Structure (SMILES)	PDI Activity at 10 μM (%) (recombinant PDI)	IC50 (MM1.S) [µM]	IC50 (recombinant PDI) [µM]	viability at 6.75 µM (MM1.S) [%]	further results
COc1ccc(N2C(=O)C(=Cc3ccc(C(F)(F)F)s3)SC2=S)cc1 [642-20]	72.37	> 6.75		92.9	
COc1ccc(N2C(=O)C(=Cc3ccc(C(=O)O)s3)SC2=S)cc1 [642-21]	71.54	> 6.75		102	
COc1ccc(N2C(=O)/C(=C/c3ccc([N+](=O)[O-])s3)SC2=S)cc1 [642-Parent]	21.51	0.25	2.44	8.06	IC50 (MM cell lines): < 1 µM; IC50 (MM cell lines; listed as CCF642): ~0.5 µM; IC50 (lymphoma cell lines): < 1 µM; IC50 [1]: > 6.75 µM; tolerability in 5TGM1-luc engrafted mice (Tolerability in mice; C57BL/KaLwRij mice systemically engrafted with 5TGM1-luc): well tolerated; tolerability IV (Tolerability in mice; albumin-based formulation (10-20% BSA, saline, 10% DMSO) given IV): tolerated by mice when given IV; time to IRE1-α oligomerization (IRE1-α): ≤ 15 min; time to increase in protein ubiquitination (protein ubiquitination): ≤ 30 min
CC(C)C[C@H](NC(=O)[C@H](Cc1ccccc1)NC(=O)c1cnccn1)B(O)O [bortezomib, reference compound]					maximal tolerated dose (Tolerability in mice; SC twice a week, C57BL/KaLwRij mice): 0.5 mg/kg

More lines, main results first:

PDI Activity at 10 μM (%) (recombinant PDI)	IC50 (MM1.S) [µM]	IC50 (recombinant PDI) [µM]	Structure (SMILES)	viability at 6.75 µM (MM1.S) [%]	further results
5.92	0.61	1.9	N#Cc1ccc(N2C(=O)C(=Cc3ccc([N+](=O)[O-])s3)SC2=S)cc1 [642-23]	17.5	
42.12	> 6.75	8.66	COc1ccc(N2C(=O)/C(=C/c3cccc([N+](=O)[O-])c3)SC2=S)cc1 [642-24]	93.5	
40.37	> 6.75	3.07	C=CCc1cccc(/C=C2\SC(=S)N(c3ccc(OC)cc3)C2=O)c1O [642-25]	92.8	
